This passage reports DC50 and Dmax results from patent US12448389B2, “BRM targeting compounds and associated methods of use” (Prelude Therapeutics Incorporated, priority 2020, dated 2025).

Assay [1] has as its target T1, SMARCA2-HiBiT (Homo sapiens, UniProt P51531).
T1 construct: SMARCA2-HiBiT knock-in Hela monoclonal cell (CS302366); host or cells: HeLa monoclonal knock-in line (CRISPR HiBiT knock-in at the endogenous locus, heterozygous)
Kind of assay: SMARCA2 HiBiT degradation assay in HeLa cells. Type of assay: cell-based. Particulars: 18 hours incubation; for DC50: read-out: HeLa_HiBit-SM2 DC50; for Dmax: HeLa, read-out: HeLa-HiBit-SM2 Dmax (%). Put shortly:
(§1)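 HeLa monoclonal lines with heterozygous HiBiT knock-in were seeded at 2500 cells/well in EMEM with 10% FBS and treated with compound for 18 h at 37 °C. Remaining tagged protein was measured by Nano-Glo HiBiT lytic luminescence after 30–60 min at RT, and values came from curve fitting.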
(In general: With HiBiT, luminescence reflects the tagged protein that the partner subunit can reach.)

Assay [2] deals with T2, SMARCA4-HiBiT (Homo sapiens, UniProt P51532).
T2 construct: SMARCA4-HiBiT knock-in Hela monoclonal cell (CS3023226); host or cells: HeLa monoclonal knock-in line (CRISPR HiBiT knock-in at the endogenous locus, heterozygous)
T2 sequence (P51532 whole entry): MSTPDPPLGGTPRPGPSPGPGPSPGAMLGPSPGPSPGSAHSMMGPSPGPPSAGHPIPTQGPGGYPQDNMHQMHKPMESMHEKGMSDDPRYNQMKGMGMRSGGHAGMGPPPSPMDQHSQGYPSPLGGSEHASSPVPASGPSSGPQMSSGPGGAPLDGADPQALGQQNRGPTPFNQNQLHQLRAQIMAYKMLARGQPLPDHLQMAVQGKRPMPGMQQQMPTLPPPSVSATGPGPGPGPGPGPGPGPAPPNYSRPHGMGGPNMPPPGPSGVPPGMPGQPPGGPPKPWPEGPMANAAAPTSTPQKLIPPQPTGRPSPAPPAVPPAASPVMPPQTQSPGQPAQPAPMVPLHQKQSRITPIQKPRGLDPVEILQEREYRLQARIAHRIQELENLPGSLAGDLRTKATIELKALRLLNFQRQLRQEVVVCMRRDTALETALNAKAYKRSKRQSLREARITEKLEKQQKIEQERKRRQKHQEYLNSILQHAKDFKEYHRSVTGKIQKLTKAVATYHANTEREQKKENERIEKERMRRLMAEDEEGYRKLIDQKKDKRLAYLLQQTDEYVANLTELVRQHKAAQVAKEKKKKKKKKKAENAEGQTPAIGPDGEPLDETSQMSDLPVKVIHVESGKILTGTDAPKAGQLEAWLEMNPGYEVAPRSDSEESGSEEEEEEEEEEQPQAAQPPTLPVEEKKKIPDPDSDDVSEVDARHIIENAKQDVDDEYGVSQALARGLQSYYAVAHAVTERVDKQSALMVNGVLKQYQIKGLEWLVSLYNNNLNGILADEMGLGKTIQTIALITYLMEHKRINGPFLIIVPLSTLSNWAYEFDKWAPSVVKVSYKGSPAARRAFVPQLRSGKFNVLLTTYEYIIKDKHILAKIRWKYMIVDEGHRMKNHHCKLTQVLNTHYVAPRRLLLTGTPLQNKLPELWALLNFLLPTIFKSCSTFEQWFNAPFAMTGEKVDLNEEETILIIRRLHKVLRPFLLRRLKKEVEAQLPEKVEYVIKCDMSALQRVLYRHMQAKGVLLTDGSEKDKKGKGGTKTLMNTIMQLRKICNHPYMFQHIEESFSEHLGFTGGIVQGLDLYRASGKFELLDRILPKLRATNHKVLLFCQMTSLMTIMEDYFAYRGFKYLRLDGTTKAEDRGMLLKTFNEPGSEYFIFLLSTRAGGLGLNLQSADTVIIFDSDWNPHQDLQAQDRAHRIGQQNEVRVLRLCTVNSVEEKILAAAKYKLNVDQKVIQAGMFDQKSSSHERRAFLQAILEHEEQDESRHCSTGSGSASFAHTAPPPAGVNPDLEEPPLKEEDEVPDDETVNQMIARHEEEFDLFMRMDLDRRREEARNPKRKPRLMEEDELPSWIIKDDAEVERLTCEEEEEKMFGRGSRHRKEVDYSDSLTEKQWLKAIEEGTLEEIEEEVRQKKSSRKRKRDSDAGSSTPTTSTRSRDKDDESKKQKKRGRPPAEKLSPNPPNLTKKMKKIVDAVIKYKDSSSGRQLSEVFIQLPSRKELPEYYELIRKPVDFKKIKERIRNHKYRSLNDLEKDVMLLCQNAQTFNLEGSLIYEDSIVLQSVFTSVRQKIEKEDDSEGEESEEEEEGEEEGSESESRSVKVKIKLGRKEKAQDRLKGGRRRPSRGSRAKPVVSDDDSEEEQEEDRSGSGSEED
The assay can be described thus: SMARCA4 HiBiT degradation assay in HeLa cells. The assay is classed as cell-based. The settings on record: 18 hours incubation; for DC50: read-out: HeLa-HiBit-SM4 DC50; for Dmax: HeLa, read-out: HeLa-HiBit-SM4 Dmax (%). Put shortly:
as §1

T1 sequence (P51531 whole entry): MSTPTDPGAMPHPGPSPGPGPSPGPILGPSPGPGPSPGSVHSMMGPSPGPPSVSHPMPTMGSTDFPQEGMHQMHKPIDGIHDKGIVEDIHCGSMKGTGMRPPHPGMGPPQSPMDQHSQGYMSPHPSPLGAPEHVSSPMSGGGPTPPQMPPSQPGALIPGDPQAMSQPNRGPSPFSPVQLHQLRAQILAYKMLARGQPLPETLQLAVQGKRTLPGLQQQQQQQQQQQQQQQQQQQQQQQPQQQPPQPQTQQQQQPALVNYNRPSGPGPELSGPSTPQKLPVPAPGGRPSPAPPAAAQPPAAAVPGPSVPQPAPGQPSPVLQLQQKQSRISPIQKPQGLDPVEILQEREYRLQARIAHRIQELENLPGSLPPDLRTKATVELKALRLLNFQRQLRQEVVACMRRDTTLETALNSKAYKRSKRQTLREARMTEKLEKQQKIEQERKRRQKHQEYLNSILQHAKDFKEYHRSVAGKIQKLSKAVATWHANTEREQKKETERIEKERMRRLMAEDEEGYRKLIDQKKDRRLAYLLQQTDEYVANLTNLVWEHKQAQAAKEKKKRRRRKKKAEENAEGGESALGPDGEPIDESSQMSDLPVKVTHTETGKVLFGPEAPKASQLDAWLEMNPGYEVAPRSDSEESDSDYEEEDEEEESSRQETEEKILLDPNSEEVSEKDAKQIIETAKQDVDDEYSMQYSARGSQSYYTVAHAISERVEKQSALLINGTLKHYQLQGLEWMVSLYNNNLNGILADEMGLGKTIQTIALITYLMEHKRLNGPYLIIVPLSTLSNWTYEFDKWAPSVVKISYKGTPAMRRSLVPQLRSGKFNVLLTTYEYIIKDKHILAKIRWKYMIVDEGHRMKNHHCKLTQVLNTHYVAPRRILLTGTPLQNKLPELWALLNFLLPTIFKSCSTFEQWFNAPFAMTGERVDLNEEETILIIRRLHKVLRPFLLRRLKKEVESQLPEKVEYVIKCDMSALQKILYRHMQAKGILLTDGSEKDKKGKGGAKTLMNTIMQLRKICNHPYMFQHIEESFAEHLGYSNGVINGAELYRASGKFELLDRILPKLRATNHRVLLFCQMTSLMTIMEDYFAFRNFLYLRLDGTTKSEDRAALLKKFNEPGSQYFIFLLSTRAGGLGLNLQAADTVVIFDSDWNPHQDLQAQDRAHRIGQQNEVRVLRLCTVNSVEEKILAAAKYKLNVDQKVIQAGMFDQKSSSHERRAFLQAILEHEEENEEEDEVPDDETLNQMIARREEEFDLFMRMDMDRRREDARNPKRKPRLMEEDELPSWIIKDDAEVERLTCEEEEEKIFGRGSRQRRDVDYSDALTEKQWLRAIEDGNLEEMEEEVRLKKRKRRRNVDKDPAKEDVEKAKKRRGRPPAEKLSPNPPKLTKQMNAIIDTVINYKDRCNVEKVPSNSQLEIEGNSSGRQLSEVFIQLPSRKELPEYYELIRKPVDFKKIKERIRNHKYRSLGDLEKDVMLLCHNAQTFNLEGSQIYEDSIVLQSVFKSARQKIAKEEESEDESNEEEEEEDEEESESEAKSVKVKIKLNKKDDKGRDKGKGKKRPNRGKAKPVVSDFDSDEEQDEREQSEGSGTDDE

On to `O=C1CCC(N2C(=O)c3ccc(NCCN4C[C@@H]5[C@H](C4)[C@H]5CN4CCN5c6cc(-c7ccccc7O)nnc6NC[C@H]5C4)cc3C2=O)C(=O)N1` (stereo partly drawn) [Example 153, 2-(2,6-dioxopiperidin-3-yl)-5-((2-((1R,5S,6r)-6-(((S)-2-(2-hydroxyphenyl)-5,6,6a,7,9,10-hexahydro-8H-pyrazino[1′,2′:4,5]pyrazino[2,3-c]pyridazin-8-yl)methyl)-3-azabicyclo[3.1.0]hexan-3-yl)ethyl)amino)isoindoline-1,3-dione], for which the values for the DC50 in assay [1] and in assay [2] were less than 10 nM and 10 to 100 nM, respectively. Further, the Dmax – broadly, the largest share of the target that was removed – was in the range of 50 to 75% in assay [1] and 75 to 85% in assay [2].

Take `O=C1CCC(N2C(=O)c3ccc(N4C[C@@H]5[C@@H](CN6CCC(CN7CCN8c9cc(-c%10ccccc%10O)nnc9NC[C@H]8C7)CC6)[C@@H]5C4)cc3C2=O)C(=O)N1` (stereo partly drawn) [Example 154, 2-(2,6-dioxopiperidin-3-yl)-5-((1R,5S,6s)-6-((4-(((S)-2-(2-hydroxyphenyl)-5,6,6a,7,9,10-hexahydro-8H-pyrazino[1′,2′:4,5]pyrazino[2,3-c]pyridazin-8-yl)methyl)piperidin-1-yl)methyl)-3-azabicyclo[3.1.0]hexan-3-yl)isoindoline-1,3-dione]: in assay [1], the DC50 – broadly, the concentration at which degradation of the target reaches its halfway point – is less than 10 nM and the maximal degradation (Dmax) is 50 to 75%. In addition, in assay [2], the DC50 is less than 10 nM and the Dmax is 50 to 75%.

In the case of `O=C1CCC(N2C(=O)c3ccc(N4CCN(CCN5CCC(N6CCN7c8cc(-c9ccccc9O)nnc8NC[C@H]7C6)CC5)CC4)cc3C2=O)C(=O)N1` (stereo partly drawn) [Example 155, 2-(2,6-dioxopiperidin-3-yl)-5-(4-(2-(4-((S)-2-(2-hydroxyphenyl)-5,6,6a,7,9,10-hexahydro-8H-pyrazino[1′,2′:4,5]pyrazino[2,3-c]pyridazin-8-yl)piperidin-1-yl)ethyl)piperazin-1-yl)isoindoline-1,3-dione], in assay [1], the half-maximal degradation concentration (DC50) was less than 10 nM and the greatest degradation seen (Dmax) is more than 85%. In assay [2], the half-maximal degradation concentration (DC50) was less than 10 nM and the Dmax was more than 85%.

Turning to `O=C1CCC(N2C(=O)c3ccc(N4CCC(N5CCN6c7cc(-c8ccccc8O)nnc7NC[C@H]6C5)C4)cc3C2=O)C(=O)N1` (stereo partly drawn) [Example 156, 2-(2,6-dioxopiperidin-3-yl)-5-(3-((S)-2-(2-hydroxyphenyl)-5,6,6a,7,9,10-hexahydro-8H-pyrazino[1′,2′:4,5]pyrazino[2,3-c]pyridazin-8-yl)pyrrolidin-1-yl)isoindoline-1,3-dione], in assay [1], the half-maximal degradation concentration (DC50) fell in the range of 10 to 100 nM and the Dmax fell in the range of 75 to 85%. In assay [2], the DC50 lay within 10 to 100 nM and the greatest degradation seen (Dmax) is 50 to 75%.

`O=C1CCC(N2C(=O)c3ccc(N4CCC(CN5CCN6c7cc(-c8ccccc8O)nnc7NC[C@H]6C5)CC4)cc3C2=O)C(=O)N1` (stereo partly drawn) [Example 157, 2-(2,6-dioxopiperidin-3-yl)-5-(4-(((S)-2-(2-hydroxyphenyl)-5,6,6a,7,9,10-hexahydro-8H-pyrazino[1′,2′:4,5]pyrazino[2,3-c]pyridazin-8-yl)methyl)piperidin-1-yl)isoindoline-1,3-dione]: in assay [1], the 50% degradation concentration (DC50) is less than 10 nM and the Dmax was 75 to 85%. Besides, in assay [2], the DC50 was 10 to 100 nM and the Dmax was in the range of 50 to 75%.

For the compound `CN(CCN1CCC(N2CCN3c4cc(-c5ccccc5O)nnc4NC[C@H]3C2)CC1)C1CCN(c2ccc3c(c2)C(=O)N(C2CCC(=O)NC2=O)C3=O)CC1` (stereo partly drawn) [Example 158, 2-(2,6-dioxopiperidin-3-yl)-5-(4-((2-(4-((S)-2-(2-hydroxyphenyl)-5,6,6a,7,9,10-hexahydro-8H-pyrazino[1′,2′:4,5]pyrazino[2,3-c]pyridazin-8-yl)piperidin-1-yl)ethyl)(methyl)amino)piperidin-1-yl)isoindoline-1,3-dione], in assay [1], the DC50 was less than 10 nM and the greatest degradation seen (Dmax) is more than 85%. In assay [2], the DC50 is less than 10 nM and the Dmax was more than 85%.

As for `O=C1CCC(N2C(=O)c3ccc(N4CCN(CCN5CCO[C@H](CN6CCN7c8cc(-c9ccccc9O)nnc8NC[C@H]7C6)C5)CC4)cc3C2=O)C(=O)N1` (stereo partly drawn) [Example 159, 2-(2,6-dioxopiperidin-3-yl)-5-(4-(2-((R)-2-(((S)-2-(2-hydroxyphenyl)-5,6,6a,7,9,10-hexahydro-8H-pyrazino[1′,2′:4,5]pyrazino[2,3-c]pyridazin-8-yl)methyl)morpholino)ethyl)piperazin-1-yl)isoindoline-1,3-dione], in assay [1], the DC50 is less than 10 nM and the greatest degradation seen (Dmax) is more than 85%. Also, in assay [2], the DC50 was less than 10 nM and the Dmax lay within 50 to 75%.

With `CC1CN(CC2CCN(c3ccc4c(c3)C(=O)N(C3CCC(=O)NC3=O)C4=O)CC2)CCC1CN1CCN2c3cc(-c4ccccc4O)nnc3NC[C@H]2C1` (stereo partly drawn) [Example 161, 2-(2,6-dioxopiperidin-3-yl)-5-(4-((4-(((S)-2-(2-hydroxyphenyl)-5,6,6a,7,9,10-hexahydro-8H-pyrazino[1′,2′:4,5]pyrazino[2,3-c]pyridazin-8-yl)methyl)-3-methylpiperidin-1-yl)methyl)piperidin-1-yl)isoindoline-1,3-dione], in assay [1], the DC50 was less than 10 nM and the Dmax was more than 85%. Besides, in assay [2], the DC50 was less than 10 nM and the Dmax is more than 85%.

As to `CC1CC(CN2CCN3c4cc(-c5ccccc5O)nnc4NC[C@H]3C2)CCN1CC1CCN(c2ccc3c(c2)C(=O)N(C2CCC(=O)NC2=O)C3=O)CC1` (stereo partly drawn) [Example 162, 2-(2,6-dioxopiperidin-3-yl)-5-[4-[[4-[[(10S)-4-(2-hydroxyphenyl)-1,5,6,8,12-pentazatricyclo[8.4.0.02,7]tetradeca-2,4,6-trien-12-yl]methyl]-2-methylpiperidine-1-yl]methyl]piperidin-1-yl] isoindole-1,3-dione], in assay [1], the DC50 was less than 10 nM and the maximal degradation (Dmax) is more than 85%. Besides, in assay [2], the DC50 was less than 10 nM and the Dmax was more than 85%.

For `O=C1CCC(N2C(=O)c3ccc(N4CCC(NC5CCC(CN6CCN7c8cc(-c9ccccc9O)nnc8NC[C@H]7C6)CC5)CC4)cc3C2=O)C(=O)N1` (stereo partly drawn) [Example 163, 2-(2,6-dioxopiperidin-3-yl)-5-[4-[[4-[[(10S)-4-(2-hydroxyphenyl)-1,5,6,8,12-pentazatricyclo[8.4.0.02,7]tetradeca-2,4,6-trien-12-yl]methyl]cyclohexyl]amino]piperidin-1-yl]isoindole-1,3-dione], in assay [1], the half-maximal degradation concentration (DC50) was less than 10 nM and the Dmax was more than 85%. In assay [2], the DC50 was less than 10 nM and the Dmax is more than 85%.

Take `O=C1CCC(N2C(=O)c3cc(F)c(N4CCC(CN5CCC(CN6CCN7c8cc(-c9ccccc9O)nnc8NC[C@H]7C6)CC5)CC4)cc3C2=O)C(=O)N1` (stereo partly drawn) [Example 164, 2-(2,6-dioxopiperidin-3-yl)-5-fluoro-6-[4-[[4-[[(10S)-4-(2-hydroxyphenyl)-1,5,6,8,12-pentazatricyclo[8.4.0.02,7]tetradeca-2,4,6-trien-12-yl]methyl]piperidin-1-yl]methyl]piperidin-1-yl]isoindole-1,3-dione]: in assay [1], the DC50 is less than 10 nM and the maximal degradation (Dmax) was more than 85%. Further, in assay [2], the DC50 is less than 10 nM and the Dmax was 75 to 85%.

For the compound `CC1CN(CC2CCN(c3cc4c(cc3F)C(=O)N(C3CCC(=O)NC3=O)C4=O)CC2)CCC1CN1CCN2c3cc(-c4ccccc4O)nnc3NC[C@H]2C1` (stereo partly drawn) [Example 165, 2-(2,6-dioxopiperidin-3-yl)-5-fluoro-6-[4-[[4-[[(10S)-4-(2-hydroxyphenyl)-1,5,6,8,12-pentazatricyclo[8.4.0.02,7]tetradeca-2,4,6-trien-12-yl]methyl]-3-methylpiperidin-1-yl]methyl]piperidin-1-yl] isoindole-1,3-dione], in assay [1], the DC50 is less than 10 nM and the Dmax is 75 to 85%. For the same compound, in assay [2], the DC50 is less than 10 nM and the Dmax fell in the range of 75 to 85%.

Regarding `CC1CC(CN2CCN3c4cc(-c5ccccc5O)nnc4NC[C@H]3C2)CCN1CC1CCN(c2cc3c(cc2F)C(=O)N(C2CCC(=O)NC2=O)C3=O)CC1` (stereo partly drawn) [Example 166, 2-(2,6-dioxopiperidin-3-yl)-5-fluoro-6-[4-[[4-[[(10S)-4-(2-hydroxyphenyl)-1,5,6,8,12-pentazatricyclo[8.4.0.02,7]tetradeca-2,4,6-trien-12-yl]methyl]-2-methylpiperidin-1-yl]methyl]piperidin-1-yl] isoindole-1,3-dione], in assay [1], the DC50 was less than 10 nM and the Dmax was more than 85%. In addition, in assay [2], the DC50 is less than 10 nM and the maximal degradation (Dmax) is more than 85%.

Turning to `O=C1CCC(N2C(=O)c3ccc(N4CCC(CNC5CCC(CN6CCN7c8cc(-c9ccccc9O)nnc8NC[C@H]7C6)CC5)CC4)cc3C2=O)C(=O)N1` (stereo partly drawn) [Example 167, 2-(2,6-dioxopiperidin-3-yl)-5-[4-[[[4-[[(10S)-4-(2-hydroxyphenyl)-1,5,6,8,12-pentazatricyclo[8.4.0.02,7]tetradeca-2,4,6-trien-12-yl]methyl]cyclohexyl]amino]methyl]piperidin-1-yl] isoindole-1,3-dione], in assay [1], the DC50 is less than 10 nM and the maximal degradation (Dmax) is more than 85%. Besides, in assay [2], the DC50 was less than 10 nM and the Dmax is more than 85%.

For `O=C1CCC(N2C(=O)c3ccc(N4CCN(CC5CCC(CN6CCN7c8cc(-c9ccccc9O)nnc8NC[C@H]7C6)CC5)CC4)cc3C2=O)C(=O)N1` (stereo partly drawn) [Example 168, 2-(2,6-dioxopiperidin-3-yl)-5-(4-((4-(((S)-2-(2-hydroxyphenyl)-5,6,6a,7,9,10-hexahydro-8H-pyrazino[1′,2′:4,5]pyrazino[2,3-c]pyridazin-8-yl)methyl)cyclohexyl)methyl)piperazin-1-yl)isoindoline-1,3-dione], in assay [1], the DC50 is less than 10 nM and the greatest degradation seen (Dmax) was more than 85%. Besides, in assay [2], the DC50 was less than 10 nM and the Dmax was in the range of 75 to 85%.
